Calls of active or inactive are those of the source. For most assays here, no stated cut-off is given here; in the data, actives have a measured EC50 and inactives only a lower limit.
Assays:
[1] = cytotoxicity toward NIH3T3 fibroblasts, dose response, counter-screen, cell-based, ATP luminescence, mouse fibroblasts (AID 2010); assay type: functional;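 further: cells exposed to compound for about 90 hours before reading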
[2] = inhibitors of intracellular T. cruzi replication, confirmation, NIH3T3 host cells, beta-gal luminescence (AID 2044); assay type: functional, cell-based;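 further: intracellular parasites grown in NIH/3T3 mouse fibroblasts as host cells; luminescent beta-galactosidase reporter signal from transgenic T. cruzi replicating inside host cells; inhibitors lower the luminescence signal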
[3] = Luminescence Cell-Based Dose Retest to Confirm Inhibitors of Cancer Stem Cells. [Related pubchem assays (depositor defined):AID2717, AID2721]; assay type: functional, Homo sapiens; conditions: Homo sapiens
Streptococcus = assay: Group A Streptococcus viability loss, dose response, counter-screen for streptokinase expression inhibitor project, luminescence, BacTiterGlo (AID 1915); assay type: functional, organism-based;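 further: potency for reduction of bacterial viability or growth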
[4] = system: Streptococcus sp. 'group A'; assay: growth inhibition of control SK(-) GAS strain, dose response, counter-screen for streptokinase expression inhibitor project, luminescence, kanamycin, BacTiterGlo, confirmation (AID 1900); assay type: functional, organism-based
Protein RecA = target: T1, Protein RecA (Mycobacterium tuberculosis, UniProt P9WHJ3); assay: Fluorescence Cell-Free Homogeneous Dose Retest to Identify Inhibitors of RecA-Intein Splicing Activity. [Related pubchem assays (depositor defined):AID2097, AID2223, AID489010, AID492950]; assay type: functional
T1 sequence (P9WHJ3 whole entry): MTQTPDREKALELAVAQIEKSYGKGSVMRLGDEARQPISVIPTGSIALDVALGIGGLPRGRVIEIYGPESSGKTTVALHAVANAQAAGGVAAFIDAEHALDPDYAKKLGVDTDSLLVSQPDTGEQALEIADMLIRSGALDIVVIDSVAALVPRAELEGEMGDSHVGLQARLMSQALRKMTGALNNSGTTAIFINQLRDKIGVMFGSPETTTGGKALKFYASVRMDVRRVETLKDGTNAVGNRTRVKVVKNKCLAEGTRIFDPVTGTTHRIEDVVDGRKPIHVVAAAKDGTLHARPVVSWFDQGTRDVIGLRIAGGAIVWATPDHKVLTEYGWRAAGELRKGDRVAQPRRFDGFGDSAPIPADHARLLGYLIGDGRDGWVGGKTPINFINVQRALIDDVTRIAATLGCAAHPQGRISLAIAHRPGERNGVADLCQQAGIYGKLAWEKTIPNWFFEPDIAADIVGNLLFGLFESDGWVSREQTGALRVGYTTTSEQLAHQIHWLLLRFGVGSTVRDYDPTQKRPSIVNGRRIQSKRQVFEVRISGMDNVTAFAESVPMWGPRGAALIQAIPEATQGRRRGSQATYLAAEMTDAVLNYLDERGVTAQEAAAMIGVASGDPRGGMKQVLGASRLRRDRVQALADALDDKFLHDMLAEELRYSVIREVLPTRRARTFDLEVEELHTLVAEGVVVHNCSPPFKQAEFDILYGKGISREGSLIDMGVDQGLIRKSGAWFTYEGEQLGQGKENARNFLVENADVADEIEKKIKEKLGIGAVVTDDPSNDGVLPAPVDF

[5] = target: T2, Replicative DNA helicase DnaB (Mycobacterium tuberculosis, UniProt P9WMR3); assay: DnaB intein splicing inhibitors, dose response, biochemical, cell-free fluorescence (AID 449749); assay type: functional
T2 sequence (P9WMR3 whole entry): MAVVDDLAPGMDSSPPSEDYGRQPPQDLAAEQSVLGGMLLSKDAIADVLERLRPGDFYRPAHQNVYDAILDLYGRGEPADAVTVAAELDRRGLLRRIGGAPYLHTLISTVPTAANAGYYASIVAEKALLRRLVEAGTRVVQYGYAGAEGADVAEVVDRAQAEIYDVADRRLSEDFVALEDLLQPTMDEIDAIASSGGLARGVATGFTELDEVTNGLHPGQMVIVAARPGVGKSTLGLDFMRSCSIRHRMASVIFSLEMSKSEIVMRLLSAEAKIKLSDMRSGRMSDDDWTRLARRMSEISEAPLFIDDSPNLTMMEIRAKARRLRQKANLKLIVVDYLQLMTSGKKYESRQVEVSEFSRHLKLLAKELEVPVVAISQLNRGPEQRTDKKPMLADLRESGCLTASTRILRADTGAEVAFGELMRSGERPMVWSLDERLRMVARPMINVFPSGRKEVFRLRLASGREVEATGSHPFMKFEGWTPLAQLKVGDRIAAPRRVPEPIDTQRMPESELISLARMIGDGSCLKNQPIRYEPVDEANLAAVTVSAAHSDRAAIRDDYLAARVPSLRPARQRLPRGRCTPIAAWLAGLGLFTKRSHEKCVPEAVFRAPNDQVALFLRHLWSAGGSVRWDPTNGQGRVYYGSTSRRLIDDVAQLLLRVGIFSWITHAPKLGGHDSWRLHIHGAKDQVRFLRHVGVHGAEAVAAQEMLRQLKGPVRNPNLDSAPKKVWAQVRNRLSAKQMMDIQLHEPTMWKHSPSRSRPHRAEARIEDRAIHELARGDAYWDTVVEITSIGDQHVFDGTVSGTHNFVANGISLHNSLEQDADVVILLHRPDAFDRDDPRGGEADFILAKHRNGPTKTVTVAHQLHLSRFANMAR

Streptokinase A = target: T3, Streptokinase A (Streptococcus pyogenes serotype M1, UniProt P10520); assay: S. pyogenes streptokinase expression inhibitors, potency, dose response, plasminogen activation absorbance, OD405 (AID 1914); assay type: functional, Streptococcus pyogenes M1 GAS;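 further: secreted streptokinase activity via plasminogen activation per viability signal from cell pellet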
T3 sequence (P10520 whole entry): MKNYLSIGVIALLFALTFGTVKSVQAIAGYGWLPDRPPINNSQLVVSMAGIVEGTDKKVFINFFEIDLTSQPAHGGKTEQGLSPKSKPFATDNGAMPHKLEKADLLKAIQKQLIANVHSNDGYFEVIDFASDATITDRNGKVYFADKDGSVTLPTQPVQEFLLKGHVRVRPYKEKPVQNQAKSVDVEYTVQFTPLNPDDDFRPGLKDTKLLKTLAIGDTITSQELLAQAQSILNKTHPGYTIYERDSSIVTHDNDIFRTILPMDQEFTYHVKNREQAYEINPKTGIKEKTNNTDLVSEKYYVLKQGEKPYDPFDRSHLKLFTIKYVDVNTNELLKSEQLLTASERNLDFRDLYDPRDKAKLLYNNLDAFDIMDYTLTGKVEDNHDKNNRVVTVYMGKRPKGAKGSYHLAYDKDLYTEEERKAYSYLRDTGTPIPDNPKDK

Which results are given for `CC1(C)CC2CC(C)(CN2S(=O)(=O)c2ccc(C(=O)Nc3ccc(Cl)c(S(=O)(=O)N4CCOCC4)c3)cc2)C1` (centres undefined)?
EC50 [1]: 21.6 µM (active); EC50 [2]: 2.22 µM (active)

For `COc1cccc(-c2sc3ccc(OC)cc3c2C#CCCO)c1`, which AC50 [3] is on record?
The AC50 was 2.79 µM (active).

Which EC50 [1] does the source give for `CC(NC(=O)c1cccc(Cn2cc([N+](=O)[O-])cn2)c1)c1ccc(C(C)(C)C)cc1` (centres undefined) here?
The EC50 was > 60 µM (not active).

What about the EC50 [2] of the same molecule?
The EC50 was 2.59 µM (active).

With `Fc1ccccc1C1c2[nH]c3ccccc3c2CCN1Cc1cccn1-c1ncccn1` (centres undefined) as the molecule, how does the EC50 [1] read?
Its EC50 is > 60 µM (not active).

What about the EC50 [2] of the same molecule?
The EC50 was 1.07 µM (active).

For `Cc1cc(N/N=C/c2ccccc2O)nc(-c2ccccc2O)n1`, which EC50 (Streptococcus) is on record?
Its EC50 is 2.9 µM (active).

What about the EC50 [4] of the same molecule?
The EC50 was 0.855 µM (active).

With `CCOc1ccc(C2C(C#N)=C(N)Oc3[nH]nc(C)c32)cc1OC(=O)C1CC1` (centres undefined) as the molecule, how does the EC50 (Protein RecA) read?
Its EC50 is 9.82 µM (active).

What about the AC50 [5] of the same molecule?
Its AC50 is 17.7 µM (active).

Which AC50 [3] does the source give for `C=CCn1c(SCCC)nc2sc3c(c2c1=O)CCc1ccccc1-3` here?
Its AC50 is 1.1 µM (active).

For `CC(C)(C)c1cc(C(=O)NCCN2CCCC2)cc(C(C)(C)C)c1`, which EC50 [1] is on record?
Its EC50 is > 30 µM (not active).

And the EC50 [2]?
The EC50 was 4.49 µM (active).

Which EC50 [1] does the source give for `COc1ccc(NC(=O)CCN2CCN(C/C=C/c3ccccc3)CC2)cc1` here?
Its EC50 is > 60 µM (not active).

What about the EC50 [2] of the same molecule?
Its EC50 is 0.686 µM (active).

What does the source list for `N#C/C(=C\c1cccc(O)c1)c1nc2ccccc2o1`?
EC50 (Protein RecA): 9.27 µM (active); AC50 [5]: 53.1 µM (active)

What does the source list for `Cc1cc(=O)n(-c2ccc(C(=O)O)cc2)[nH]1`?
EC50 (Protein RecA): 1.92 µM (active); AC50 [5]: 1.9 µM (active)

Which results are given for `COCc1cc(CN2CCCC(C(=O)c3cccc(C(F)(F)F)c3)C2)ccc1OC` (centres undefined)?
EC50 [1]: > 60 µM (inconclusive); EC50 [2]: 0.1 µM (active)

Which AC50 [3] does the source give for `COc1ccc2sc(-c3ccc(N(C)C)cc3)c(-c3ccc4cc[nH]c4c3)c2c1` here?
Its AC50 is 3.54 µM (active).

With `CN1CCN(CC(=O)C23CC4CC(CC(C4)C2)C3)CC1` as the molecule, how does the EC50 [1] read?
The EC50 was > 30 µM (not active).

And the EC50 [2]?
The EC50 was 0.225 µM (active).

Which results are given for `CCc1ccc(/C=C2/SC(=S)N(CC(=O)Nc3nc4ccccc4s3)C2=O)cc1`?
EC50 (Streptococcus): 35.4 µM (active); EC50 [4]: 2.87 µM (active); EC50 (Streptokinase A): > 150 µM (not active)

Which EC50 [1] does the source give for `COc1ccc(CC(C)N2CCN(Cc3ccccc3)CC2)c(OC)c1` (centres undefined) here?
Its EC50 is > 30 µM (not active).

What about the EC50 [2] of the same molecule?
Its EC50 is 0.502 µM (active).

For `FC(F)(F)c1cccc(NC(=S)N(CCCN2CCCC2)Cc2cccn2Cc2ccc(Cl)cc2)c1`, which AC50 [3] is on record?
The AC50 was 3.37 µM (active).

What about the EC50 [1] of the same molecule?
Its EC50 is > 60 µM (not active).

What about the EC50 [2] of the same molecule?
Its EC50 is 2.15 µM (active).

Which EC50 (Streptococcus) does the source give for `C=CCn1c(SC/C(O)=C(/C#N)C(C)=N)nc2sc(C)c(C)c2c1=O` here?
The EC50 was 10 µM (active).

And the EC50 [4]?
Its EC50 is 6.33 µM (active).

And the EC50 (Streptokinase A)?
The EC50 was > 150 µM (not active).

Which EC50 [1] does the source give for `O=C(CNCCc1ccc(Cl)cc1)Nc1ccc(C(=O)N2CCCCC2)cc1` here?
Its EC50 is > 60 µM (not active).

What about the EC50 [2] of the same molecule?
The EC50 was 0.502 µM (active).

For `CC(C)c1nc(NCc2ccccc2)c(C#N)c2c1CCCC2`, which EC50 (Streptococcus) is on record?
The EC50 was 12.2 µM (active).

And the EC50 [4]?
The EC50 was 4.75 µM (active).

What about the EC50 (Streptokinase A) of the same molecule?
Its EC50 is 1.96 µM (active).

With `CCc1ccc(NC2=NCC(c3ccccc3)S2)cc1` (centres undefined) as the molecule, how does the EC50 (Streptococcus) read?
Its EC50 is 18.8 µM (active).

What about the EC50 [4] of the same molecule?
Its EC50 is 8.39 µM (active).

What about the EC50 (Streptokinase A) of the same molecule?
The EC50 was > 150 µM (not active).

— ChEMBL document CHEMBL1201862, “PubChem BioAssay data set” (2004)
